Entries after “also recorded” stand apart in the source; their conditions may differ. Ends that are not written are not given here.

Test [1] relates to subcutaneous xenograft models of breast and pancreatic cancers. The test is described as follows: Subcutaneous xenograft models in nude mice, tumor growth. It counts as in vivo. Conditions: for anticancer effect on tumor growth in vivo: single agent, mouse xenograft. The text has this:
(§1) Furthermore, these compounds sensitized the cancer cells to chemotherapy. […] See, FIGS. 3-14.

In another test the target is T1, FAK (Homo sapiens, UniProt Q05397).
T1 construct: specific displacement of FAK from the focal adhesions of the tumor cells; endogenous in cells; host or cells: tumor cells; BT474 named for the focal adhesion staining
T1 sequence (Q05397 whole entry): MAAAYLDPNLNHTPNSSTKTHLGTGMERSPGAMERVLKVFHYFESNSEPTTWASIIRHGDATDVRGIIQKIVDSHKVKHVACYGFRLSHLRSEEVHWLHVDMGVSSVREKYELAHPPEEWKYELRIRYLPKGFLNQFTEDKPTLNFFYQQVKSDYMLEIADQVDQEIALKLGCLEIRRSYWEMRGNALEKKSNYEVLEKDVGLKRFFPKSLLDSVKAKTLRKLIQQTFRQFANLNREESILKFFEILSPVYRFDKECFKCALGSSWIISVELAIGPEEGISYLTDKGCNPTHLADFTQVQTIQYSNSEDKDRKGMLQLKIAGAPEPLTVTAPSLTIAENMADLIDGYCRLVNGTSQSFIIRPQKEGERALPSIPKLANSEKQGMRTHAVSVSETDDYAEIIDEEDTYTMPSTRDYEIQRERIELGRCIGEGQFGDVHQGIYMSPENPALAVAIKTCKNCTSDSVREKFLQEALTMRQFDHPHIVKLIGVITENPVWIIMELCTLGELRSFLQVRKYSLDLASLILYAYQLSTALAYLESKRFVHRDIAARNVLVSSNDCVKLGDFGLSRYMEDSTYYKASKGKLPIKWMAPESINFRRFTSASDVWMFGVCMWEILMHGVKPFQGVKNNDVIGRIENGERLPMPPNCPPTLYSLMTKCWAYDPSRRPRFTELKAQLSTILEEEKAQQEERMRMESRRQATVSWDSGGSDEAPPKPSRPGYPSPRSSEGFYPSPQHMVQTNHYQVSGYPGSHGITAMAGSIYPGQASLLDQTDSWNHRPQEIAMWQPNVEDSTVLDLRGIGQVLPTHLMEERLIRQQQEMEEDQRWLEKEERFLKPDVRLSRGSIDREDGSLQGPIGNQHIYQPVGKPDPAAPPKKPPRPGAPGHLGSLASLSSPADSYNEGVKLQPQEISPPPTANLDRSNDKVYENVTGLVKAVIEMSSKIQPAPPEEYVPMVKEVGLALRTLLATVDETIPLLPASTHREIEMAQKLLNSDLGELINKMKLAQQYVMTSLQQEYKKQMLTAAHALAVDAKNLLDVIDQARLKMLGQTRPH
The experiment in a line: FAK dephosphorylation in cells. It counts as cell-based. As for the experimental part: (§2) Measurement of FAK-specific effect. The readout of a FAK-specific effect of selected in silico small molecules is specific displacement of FAK from the focal adhesions of the tumor cells. Tumor cells are doubly stained with FAK and paxillin using dual color techniques and extensive biochemical analyses of effects on FAK signaling are performed, essentially as previously published. See, Garces, C. A., et al., Vascular Endothelial Growth Factor Receptor-3 and Focal Adhesion Kinase Bind and Suppress Apoptosis in Breast Cancer Cells. Cancer Res % R 10.1158/0008-5472.CAN-05-1661, 2006. 66(3): p. 1446-1454; Xu, L.-h., et al., The focal adhesion kinase suppresses transformation-associated, anchorage-Independent apoptosis in human breast cancer cells. J. Biol. Chem., 2000. 275: p. 30597-30604; Kurenova, E., et al., Focal Adhesion Kinase Suppresses Apoptosis by Binding to the Death Domain of Receptor-Interacting Protein. Mol. Cell. Biol., 2004. 24(10): p. 4361-4371.

Another test concerns the target T2, VEGFR-3 (Homo sapiens, UniProt P35916).
T2 construct: expressed in transfected cells
The test is described as follows: VEGFR-3 dephosphorylation in cells. Type of test: cell-based.

Test [2] concerns the target T3, FAK and VEGFR-3 interaction (Homo sapiens, UniProt Q05397).
T3 construct: endogenous in cells; BT474 for the FAK/VEGFR-3 staining
The experiment in a line: FAK and VEGFR-3 interaction and colocalization (immunofluorescence confocal microscopy, FRET). It counts as cell-based. The conditions noted are these: for colocalization of FAK and VEGFR-3 in the cells: confocal microscopy. On the procedure:
as §1
(§3) FIG. 1.3. […] FAK and VEGFR-3 in BT474 cells were stained for FAK with a Texas Red-conjugated secondary antibody and VEGFR-3 with a Alexa Fluor 488-conjugated secondary antibody and then viewed with a Leica confocal microscope. After 24 hours of peptide-AV3 (black) treatment, staining was repeated, proliferation was measured by MTT assay, apoptosis was measured by Hoechst staining and TUNEL Assay. Control scrambled peptide-AV3S (white) was also used in all experiments. (FIG. 1.10, STEP 2A).

The test system of test [3] is cancer cells, including breast, colon, pancreatic, melanoma, lung, osteosarcoma. The experiment in a line: Cancer cell viability and proliferation assays (CellTiter 96, CellTiter-Blue, MTT). It counts as cell-based, human. On the procedure:
Cell-based assays. Selected small molecules are evaluated in cell-based proliferation and apoptosis assays in model system of BT474 and MCF7 breast cancer cells and normal MCF10 cells. Other cells lines relevant for study are MiaPaCa-2 and PANC-1 (pancreatic cancer), A375 (melanoma), A549 (lung cancer), HT29 and COLO5 (colon cancer), SAOS (osteosarcoma), HCT116 p53(−/−) and HCT116 p53(+/+) (colon cancer) and C8186 (melanoma). The multiplex approach to analyze more than one parameter from the same culture well is used.
CellTiter 96 Aqueous One Solution Cell Proliferation Assay (Promega). The assay is performed by adding a small amount of the One Solution Reagent directly to culture wells, incubating for 1-4 hours and then recording absorbance at 490 nm with a spectrophotometric plate reader. The quantity of formazan product as measured by the amount of 490 nm absorbance is directly proportional to the number of living cells in culture;
The CellTiter-Blue Cell Viability Assay (Promega). CellTiter-Blue Reagent is added directly to each well (20μ reagent to each 100μ of medium in 96-well format), the plates are incubated at 37° C., and the fluorescent signal is measured (560Ex/590Em). This test can be combined with additional assays. The caspase activity is measured in the same wells by adding 120μ of the Apo-ONE Homogeneous Caspace-3/7 Assay Reagent (Promega). […]

The test system of test [4] is cancer cells. The test is described as follows: Cell cycle and apoptosis of cancer cells. It counts as cell-based, human. As for the experimental part:
Cell-based assays. Selected small molecules are evaluated in cell-based proliferation and apoptosis assays in model system of BT474 and MCF7 breast cancer cells and normal MCF10 cells. Other cells lines relevant for study are MiaPaCa-2 and PANC-1 (pancreatic cancer), A375 (melanoma), A549 (lung cancer), HT29 and COLO5 (colon cancer), SAOS (osteosarcoma), HCT116 p53(-/-) and HCT116 p53(+/+) (colon cancer) and […] (melanoma). The multiplex approach to analyze more than one parameter from the same culture well is used. The CellTiter-Blue Cell Viability Assay (Promega). CellTiter-Blue Reagent is added directly to each well (20μ reagent to each 100μ of medium in 96-well format), the plates are incubated at 37° C., and the fluorescent signal is measured (560Ex/590Em). This test can be combined with additional assays. The caspase activity is measured in the same wells by adding 120μ of the Apo-ONE Homogeneous […]-3/7 Assay Reagent (Promega). Cells are incubated for an additional hour at ambient temperature prior to recording fluorescence (485Ex/527Em);

For test [5], the system named is cancer cells. The experiment in a line: Motility and invasiveness of cancer cells. It counts as cell-based.
Test [6] concerns MCF7 cells overexpressing wt VEGFR3. The experiment in a line: Viability of stable clone overexpressing wt VEGFR3 in MCF7 cells. It counts as cell-based, human. The conditions noted are these: 1 mM.
For test [7], the system named is MCF7 control clone transfected with the vector pcDNA3. The test is described as follows: Viability of control MCF7 clone transfected with vector pcDNA3. Type of test: cell-based, human. Conditions: 1 mM.
Test [8] concerns cancer cells. The experiment in a line: Dual treatment of cancer cells with C4 and chemotherapeutic drugs. Type of test: cell-based, human. The text has this:
FIG. 1.9. Dual treatment of cancer cells with C4 compound and chemotherapeutic drugs. […] Concentrations correspond to IC50 cell-specific concentration for all used drugs.

For another test, the system named is PARP. The test is described as follows: PARP down-regulation. Type of test: cell-based. An excerpt: As such, these compounds are useful as therapeutic agents.
Test [9] addresses T4, FAK in focal adhesions of BT474 cells (Homo sapiens, UniProt Q05397).
T4 construct: specific displacement of FAK from the focal adhesions of the tumor cells; endogenous in cells; host or cells: tumor cells; BT474 named for the focal adhesion staining
The experiment in a line: Displacement of FAK from focal adhesions (dual colour staining, confocal microscopy). It counts as cell-based. Conditions: 24 hours of peptide treatment. On the procedure: as §2
FIG. 1.3. […] FAK and VEGFR-3 in BT474 cells were stained for FAK with a Texas Red-conjugated secondary antibody and VEGFR-3 with a Alexa Fluor 488-conjugated secondary antibody and then viewed with a Leica confocal microscope. After 24 hours of peptide-AV3 (black) treatment, staining was repeated, proliferation was measured by MTT assay, apoptosis was measured by Hoechst staining and TUNEL Assay. […]

The subject of the next test is breast cancer cell lines. The test is described as follows: Peptide effect on proliferation (MTT), detachment and apoptosis (Hoechst, TUNEL) in breast cancer cell lines. Type of test: cell-based, human. Conditions: 24 hours. On the procedure: as §3

T3 sequence (Q05397 2-1052 limits assumed): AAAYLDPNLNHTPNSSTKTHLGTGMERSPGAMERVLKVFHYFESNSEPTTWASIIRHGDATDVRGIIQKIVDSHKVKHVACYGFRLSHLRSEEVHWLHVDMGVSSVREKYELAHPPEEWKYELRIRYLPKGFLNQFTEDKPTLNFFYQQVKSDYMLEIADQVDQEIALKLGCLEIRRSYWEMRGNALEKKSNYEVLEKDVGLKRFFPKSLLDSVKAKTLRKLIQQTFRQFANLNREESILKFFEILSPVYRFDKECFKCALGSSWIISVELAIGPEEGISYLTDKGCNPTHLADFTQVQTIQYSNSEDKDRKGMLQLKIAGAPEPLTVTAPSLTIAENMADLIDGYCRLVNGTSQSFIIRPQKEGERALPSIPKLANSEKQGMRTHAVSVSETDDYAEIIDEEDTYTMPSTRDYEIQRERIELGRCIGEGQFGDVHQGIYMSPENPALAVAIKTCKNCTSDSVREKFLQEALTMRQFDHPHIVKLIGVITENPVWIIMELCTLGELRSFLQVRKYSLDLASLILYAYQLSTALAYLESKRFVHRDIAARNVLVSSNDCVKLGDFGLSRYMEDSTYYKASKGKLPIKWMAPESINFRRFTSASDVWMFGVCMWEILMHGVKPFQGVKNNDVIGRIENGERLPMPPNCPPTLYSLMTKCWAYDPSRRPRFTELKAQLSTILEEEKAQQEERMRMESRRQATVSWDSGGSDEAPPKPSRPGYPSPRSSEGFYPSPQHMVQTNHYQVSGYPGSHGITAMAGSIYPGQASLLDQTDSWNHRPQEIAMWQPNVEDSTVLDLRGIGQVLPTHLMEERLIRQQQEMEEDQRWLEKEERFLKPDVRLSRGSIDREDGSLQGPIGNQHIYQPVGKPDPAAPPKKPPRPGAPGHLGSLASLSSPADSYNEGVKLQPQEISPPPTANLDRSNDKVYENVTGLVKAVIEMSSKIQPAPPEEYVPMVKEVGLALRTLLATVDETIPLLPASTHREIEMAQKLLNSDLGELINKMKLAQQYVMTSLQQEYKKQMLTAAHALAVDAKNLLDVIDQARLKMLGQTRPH
T4 sequence (Q05397 whole entry): as the sequence (Q05397 whole entry) above
T2 sequence (P35916 25-1363): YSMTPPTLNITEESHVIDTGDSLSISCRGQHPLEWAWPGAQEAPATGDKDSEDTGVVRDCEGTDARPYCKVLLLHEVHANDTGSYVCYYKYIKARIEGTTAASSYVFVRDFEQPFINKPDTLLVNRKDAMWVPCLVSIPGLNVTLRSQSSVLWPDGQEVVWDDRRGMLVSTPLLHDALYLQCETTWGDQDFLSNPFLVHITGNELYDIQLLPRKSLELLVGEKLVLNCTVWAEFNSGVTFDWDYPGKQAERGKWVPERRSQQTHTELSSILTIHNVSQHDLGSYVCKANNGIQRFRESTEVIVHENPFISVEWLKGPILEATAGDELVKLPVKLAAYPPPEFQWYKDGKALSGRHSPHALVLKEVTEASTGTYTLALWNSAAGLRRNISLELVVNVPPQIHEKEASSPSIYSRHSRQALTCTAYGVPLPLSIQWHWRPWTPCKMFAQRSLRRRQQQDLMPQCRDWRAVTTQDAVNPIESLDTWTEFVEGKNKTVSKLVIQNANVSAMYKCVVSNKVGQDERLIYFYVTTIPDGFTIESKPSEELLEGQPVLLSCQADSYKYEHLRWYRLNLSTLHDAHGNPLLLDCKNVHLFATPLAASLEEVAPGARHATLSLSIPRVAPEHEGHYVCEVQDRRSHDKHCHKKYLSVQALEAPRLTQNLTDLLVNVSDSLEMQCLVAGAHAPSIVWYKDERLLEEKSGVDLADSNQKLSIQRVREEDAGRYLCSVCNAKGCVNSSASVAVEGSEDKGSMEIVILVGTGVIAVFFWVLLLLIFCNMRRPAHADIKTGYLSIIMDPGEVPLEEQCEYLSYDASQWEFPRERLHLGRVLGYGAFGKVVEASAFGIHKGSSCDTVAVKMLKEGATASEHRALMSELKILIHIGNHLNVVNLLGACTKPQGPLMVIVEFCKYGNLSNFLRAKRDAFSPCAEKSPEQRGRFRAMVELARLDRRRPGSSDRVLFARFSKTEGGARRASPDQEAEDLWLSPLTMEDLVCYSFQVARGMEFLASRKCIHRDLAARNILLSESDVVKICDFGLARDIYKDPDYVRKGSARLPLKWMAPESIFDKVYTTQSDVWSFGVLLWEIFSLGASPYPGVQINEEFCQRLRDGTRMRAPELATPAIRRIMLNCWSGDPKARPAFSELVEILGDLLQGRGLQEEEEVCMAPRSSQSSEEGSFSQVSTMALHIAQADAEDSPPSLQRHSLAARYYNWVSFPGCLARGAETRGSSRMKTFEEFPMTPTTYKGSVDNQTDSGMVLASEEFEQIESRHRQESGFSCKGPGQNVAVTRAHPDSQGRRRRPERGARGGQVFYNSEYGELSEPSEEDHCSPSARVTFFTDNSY

For `CN(C)CCOC(c1ccccc1)c1ccccc1` [Benadryl, reference compound], in [1], the “anticancer effect on tumor growth in vivo” value is recorded as “no any anticancer properties”.

Turning to `CN(C)CCN(Cc1ccc(Cl)cc1)c1ccccn1` [Compound C4, N′-[(4-chlorophenyl)methyl]-N,N-dimethyl-N′-pyridin-2-yl-ethane-1,2-diamine], on FAK, the FAK phosphorylation entry was “specifically dephosphorylates FAK and VEGFR-3”. Besides, at VEGFR-3, the VEGFR-3 phosphorylation result is “specifically dephosphorylates FAK and VEGFR-3”. Moreover, the “dephosphorylation of VEGFR3” value at VEGFR-3 (treatment for 24 h with 10 mM compound) was “caused dephosphorylation of VEGFR3”. Further, in test [2], the “FAK and VEGFR-3 interaction” value is “disrupts their interaction”; the “colocalization of FAK and VEGFR-3 in the cells” value is “decrease in their colocalization in the cells”. The cell proliferation result in test [3] is reported as “delay in cell proliferation”. In addition, the “viability of cancer cells” value in test [3] (in vitro) is “decreases viability of many different types of cancer cells”. For the same molecule, the cell cycle result with cancer cells [4] was “blockage at G1/S cell cycle transition”. In the test on cancer cells [4] (in vitro), the “apoptosis of cancer cells” value is “apoptosis of cancer cells; also recorded: causes apoptosis in pancreatic and breast cancer cells in vitro”. Also, the “motility and invasiveness of cancer cells” value in the test with cancer cells [5] is “reduces motility and invasiveness of cancer cells”. The “viability of VEGFR3 clone” value in test [6] was “reproducible decrease in viability”. Further, the “viability of control clone” value in test [7] is on record as “resistant to this concentration of the drug”. Further, in the test with cancer cells [8] (C4 combined with doxorubicin, IC50 cell-specific concentrations), the “effect of dual treatment with doxorubicin” value was “At least additive effect is very pronounced”. In the test on cancer cells [8] (in combination with Doxorubicin and Gemcitabine, in vitro), the “cell viability in combination with chemotherapy (sensitization)” value was “improved effect on decrease of cells viability; also recorded: sensitizes pancreatic cancer and breast cancer cells to chemotherapy treatment in vitro”. In addition, the “reduction of tumor growth in comparison with nontreated tumors” value in test [1] (60 mg/kg, daily intraperitoneal injections, nude mice) is listed as “up to 75%”. Further, the “tumor growth after treatment withdrawal” value in test [1] (C4 combined with Gemcitabine, pancreatic tumor) is on record as “prolonged cytostatic effect on pancreatic tumor growth after treatment withdrawal”. Also, the “anticancer effect in combination with Gemcitabine” value in [1] (C4 combined with Gemcitabine, versus each drug separately) is recorded as “much stronger anticancer effect than each of the drugs separately”. Also, the “tumor growth compared with doxorubicin” value in [1] (breast cancer) was “decreases tumor growth better than doxorubicin”. Besides, the “anticancer effect on tumor growth in vivo” value in test [1] was “strong anticancer effect; also recorded: reduces tumor growth in vivo in mouse model of breast cancer and pancreatic cancer”.

As to `COC(=O)Nc1nc2ccc(C(=O)C3CC3)cc2[nH]1` [Compound D4, methyl N-[5-(cyclopropanecarbonyl)-3H-benzoimidazol-2-yl]carbamate], at FAK, the “phosphorylation of Y397” value was “cause de-phosphorylation of Y397”. Moreover, the PARP level entry with PARP is listed as “causes PARP down-regulation”.

For `Cc1cc(C)nc(Nc2nc3cc([N+](=O)[O-])ccc3[nH]2)n1` [Compound D5, (4,6-Dimethyl-pyrimidin-2-yl)-(5-nitro-1H-benzoimidazol-2-yl)-amine], on FAK, the “phosphorylation of Y397” value is listed as “cause de-phosphorylation of Y397”.

As for `COc1ccc(NC(=O)Nc2cc(Cl)ccc2OC)c(Cl)c1` [Compound D6, 1-(2-chloro-4-methoxy-phenyl)-3-(5-chloro-2-methoxy-phenyl) urea], the “phosphorylation of Y397” value on FAK is reported as “cause de-phosphorylation of Y397”.

As to “WHWRPWTPCKMF (also: TAT penetration sequence coupled for cell tests) [peptide-AV3]”, the “colocalization of FAK and VEGFR-3 in the cells” value in test [2] is “affected co-localization of FAK and VEGFR-3; also recorded: affected colocalization of FAK and VEGFR-3”. The figures for the “displacement of FAK from the focal adhesions” value in [9] and in [9] (listed as Peptide-AV3) were “caused specific displacement of FAK from the focal adhesions” and “causes specific displacement of FAK from the focal adhesions”, respectively. For the same molecule, the “cell detachment in breast cancer cell lines” value in the test with breast cancer cell lines was “caused cell detachment”; in the test with breast cancer cell lines (listed as Peptide-AV3), “increased detachment”. In addition, the “apoptosis in breast cancer cell lines” value in the test with breast cancer cell lines (Hoechst staining and TUNEL) was “apoptosis”. For the same molecule, the “proliferation of breast cancer cell lines” value in the test on breast cancer cell lines (MTT) is “decreased proliferation”.
